Results taken from patent US4962112A, “7-(2-methyl-4-aminopyrrolidinyl)naphthryidine and quinoline compounds” (Abbott Laboratories, priority 1988, dated 1990).
In brackets after ≈: the same amount, converted by molar mass.

What was measured:
S. agalactiae = test: In vitro antibacterial activity, agar dilution MIC; type: cell-based; details: Streptococcus agalactiae, 18 h; STR[…] 508 (Table 2)
S. pyogenes = test: In vitro antibacterial activity, agar dilution MIC; type: cell-based; details: Streptococcus pyogenes, 18 h
K. pneumoniae = test: In vitro antibacterial activity, agar dilution MIC; type: cell-based, Klebsiella pneumoniae; details: ATCC8045, 18 h; KLEBSIELLA PNEUMONIAE ATCC 8045; read-out: MIC
P. aeruginosa = test: In vitro antibacterial activity, agar dilution MIC; type: cell-based; details: Pseudomonas aeruginosa, 18 h
E. coli = test: In vitro antibacterial activity, agar dilution MIC; type: cell-based; details: Escherichia coli, 18 h
Method: (§1) The in vitro antibacterial activity of the test compound was determined by conventional agar dilution procedures. The organisms were grown overnight in brain-heart infusion (BHI) broth (Difco 0037-01-6) at 36° C. Twofold dilutions of the stock solution ([…]) of the test compound were made in BHI agar obtain a test concentration ranging from […]. The plate was inoculated with approximately 10^4 organisms. It was then incubated at 36° C. for 18 h. the minimal inhibitory concentration was the lowest concentration of the test compound that yielded no visible growth on the plate.

EN[…] = test: In vitro antibacterial activity, agar dilution MIC; type: cell-based; details: Enterococcus faecium, ATCC8043, 18 h; EN[…] ATCC 8043
Method: as §1

M[…] = test: In vitro antibacterial activity, agar dilution MIC; type: cell-based; details: Micrococcus luteus
Method: as §1

S. aureus = test: In vitro antibacterial activity, agar dilution MIC; type: cell-based; details: Staphylococcus aureus, 18 h
Method: as §1

[1] = tested on: STAPHYLOCOCCUS EPIDERMIDIS; test: In vitro antibacterial activity, agar dilution MIC; type: cell-based; details: 18 h; STAPHYLOCOCCUS EPIDERMIDIS 3519
STREPTOCOCCUS BOVIS = test: In vitro antibacterial activity, agar dilution MIC; type: cell-based; details: Streptococcus equinus, 18 h; STREPTOCOCCUS BOVIS A5196
PROVIDENCIA STUARTII = test: In vitro antibacterial activity, agar dilution MIC; type: cell-based; details: 18 h
PSEUDOMONAS CEPACIA = test: In vitro antibacterial activity, agar dilution MIC; type: cell-based; details: Burkholderia cepacia, 18 h; PSEUDOMONAS CEPACIA 296I
ACINETOBACTER SP = test: In vitro antibacterial activity, agar dilution MIC; type: cell-based; details: 18 h; ACINETOBACTER SP CMX 669
[2] = Aqueous solubility in Ringer's buffer at pH 7.5 (HPLC); type: physicochemical
Method: A known excess weight of the compound was shaken overnight with a known volume of Ringer's buffer (bicarbonate buffer containing sodium, potassium, calcium and magnesium ions, initially adjusted to pH 7.5). The contents were filtered, and the clear filtrate was analyzed after appropriate dilution using HPLC (UV absorbance detection).

[3] = Oral pharmacokinetics, blood level by disk agar diffusion bioassay; type: in vivo, Mice; details: for Blood Level of Compound: mice; for serum concentrations / blood levels (in words): versus analogs A and B at 100 mg/kg
Method: Mice were administered the quantity of compound indicated orally, as a single dose. At the specified time intervals, blood was collected from groups of five mice. All samples were assayed by a disk agar diffusion bioassay procedure. Bacillus subtilis 6633 or Klebsiella pneumoniae 10032 were used as the assay organisms, and seek agar medium No. 1 (BBL Microbiology Systems; Cockeysville, MD) was the growth medium. The plates were incubated at 32° C for 18 h and read with an image analyzer (Optomax Inc.).

[4] = STREPTOCOCCUS PYOGENES 930 CONST
[5] = ATCC6538P, STAPHYLOCOCCUS AUREUS ATCC 6538P
[6] = compared with 2-unsubstituted aminopyrrolidine analogs

Structure (SMILES) | MIC (S. agalactiae) | MIC (S. pyogenes; [4]) | MIC (S. pyogenes; STREPTOCOCCUS PYOGENES EE561) | MIC (K. pneumoniae) | MIC (P. aeruginosa; PSEUDOMONAS AERUGINOSA A5007) | MIC (P. aeruginosa; PSEUDOMONAS AERUGINOSA BMH10) | MIC (P. aeruginosa; PSEUDOMONAS AERUGINOSA K799/61) | MIC (P. aeruginosa; PSEUDOMONAS AERUGINOSA K799/WT) | MIC (E. coli; ESCHERICHIA COLI DC-2) | MIC (E. coli; ESCHERICHIA COLI H560) | MIC (E. coli; ESCHERICHIA COLI JUHL) | MIC (E. coli; ESCHERICHIA COLI KNK 437) | MIC (E. coli; ESCHERICHIA COLI SS) | MIC (EN[…]) | MIC (M[…]; ATCC4698, 18 h, M[…] ATCC 4698) | MIC (M[…]; ATCC9341, 18 h, M[…] ATCC 9341) | MIC (S. aureus; STAPHYLOCOCCUS AUREUS 45) | MIC (S. aureus; STAPHYLOCOCCUS AUREUS 45RAR2) | MIC (S. aureus; STAPHYLOCOCCUS AUREUS A5177) | MIC (S. aureus; STAPHYLOCOCCUS AUREUS CMX 503A) | also measured
C[C@H]1C[C@H](N)CN1c1cc2c(cc1F)c(=O)c(C(=O)O)cn2-c1ccc(F)cc1F [Example 6] | 0.1 µg/mL (≈ 0.24 µM) | 0.2 µg/mL (≈ 0.479 µM) | 0.2 µg/mL (≈ 0.479 µM) | 0.02 µg/mL (≈ 0.0479 µM) | 3.1 µg/mL (≈ 7.43 µM) | 0.78 µg/mL (≈ 1.87 µM) | 0.02 µg/mL (≈ 0.0479 µM) | 0.39 µg/mL (≈ 0.934 µM) | 0.2 µg/mL (≈ 0.479 µM) | 0.2 µg/mL (≈ 0.479 µM) | 0.05 µg/mL (≈ 0.12 µM) | 0.2 µg/mL (≈ 0.479 µM) | ≤ 0.002 µg/mL | 0.1 µg/mL (≈ 0.24 µM) | 0.1 µg/mL (≈ 0.24 µM) | 0.2 µg/mL (≈ 0.479 µM) | 0.1 µg/mL (≈ 0.24 µM) | 0.1 µg/mL (≈ 0.24 µM) | 0.2 µg/mL (≈ 0.479 µM) | 0.1 µg/mL (≈ 0.24 µM) | MIC (S. aureus; STAPHYLOCOCCUS AUREUS CMX 553): 0.1 µg/mL (≈ 0.24 µM); MIC (S. aureus; STAPHYLOCOCCUS AUREUS CMX 6868): 0.05 µg/mL (≈ 0.12 µM); MIC (S. aureus; [5]): 0.02 µg/mL (≈ 0.0479 µM); MIC [1]: 0.2 µg/mL (≈ 0.479 µM); MIC (STREPTOCOCCUS BOVIS): 0.2 µg/mL (≈ 0.479 µM); MIC (PROVIDENCIA STUARTII): 1.56 µg/mL (≈ 3.74 µM); MIC (PSEUDOMONAS CEPACIA): 12.5 µg/mL (≈ 29.9 µM); MIC (ACINETOBACTER SP): 0.1 µg/mL (≈ 0.24 µM); AQUEOUS SOLUBILITY ([2]; at pH 7.5 in Ringer's buffer): 0.053 mg/mL; solubility properties (in words) [2, 6]: significantly improved aqueous solubility properties; oral absorption properties (in words) [3, 6]: greatly improved oral absorption properties; Blood Level of Compound ([3]; oral 25 mg/kg, t = 0.5 h): 3.7 µg/mL; Blood Level of Compound ([3]; oral 25 mg/kg, t = 1.0 h): 4.3 µg/mL; Blood Level of Compound ([3]; oral 25 mg/kg, t = 2.0 h): 2.8 µg/mL; Blood Level of Compound ([3]; oral 25 mg/kg, t = 3.0 h): 1.1 µg/mL; Blood Level of Compound ([3]; oral 25 mg/kg, t = 6.0 h): 0.1 µg/mL; Blood Level of Compound ([3]; oral 25 mg/kg, t = 24.0 h): 0.0 µg/mL; serum concentrations / blood levels (in words) ([3]; oral 25 mg/kg): still achieve better blood; serum concentrations / blood levels (in words) ([3]; oral 25 mg/kg, listed as Compound 6): higher serum concentrations
NC1CCN(c2cc3c(cc2F)c(=O)c(C(=O)O)cn3-c2ccc(F)cc2F)C1 (stereo not shown) [Example B, 7-(3-Amino-pyrrolidin-1-yl)-1-(2,4-difluorophenyl)-1,4-dihydro-6-fluoro--oxo-quinoline-3-carboxylic acid, reference compound] | 0.2 µg/mL (≈ 0.496 µM) | 0.1 µg/mL (≈ 0.248 µM) | 0.2 µg/mL (≈ 0.496 µM) | 0.01 µg/mL (≈ 0.0248 µM) | 0.2 µg/mL (≈ 0.496 µM) | 0.1 µg/mL (≈ 0.248 µM) | 0.05 µg/mL (≈ 0.124 µM) | 0.2 µg/mL (≈ 0.496 µM) | 0.2 µg/mL (≈ 0.496 µM) | 0.02 µg/mL (≈ 0.0496 µM) | 0.02 µg/mL (≈ 0.0496 µM) | 0.2 µg/mL (≈ 0.496 µM) | 0.002 µg/mL (≈ 0.00496 µM) | 0.2 µg/mL (≈ 0.496 µM) | 0.78 µg/mL (≈ 1.93 µM) | 0.39 µg/mL (≈ 0.967 µM) | 0.1 µg/mL (≈ 0.248 µM) | 0.1 µg/mL (≈ 0.248 µM) | 0.05 µg/mL (≈ 0.124 µM) | 0.05 µg/mL (≈ 0.124 µM) | MIC (S. aureus; STAPHYLOCOCCUS AUREUS CMX 553): 0.05 µg/mL (≈ 0.124 µM); MIC (S. aureus; STAPHYLOCOCCUS AUREUS CMX 6868): 0.05 µg/mL (≈ 0.124 µM); MIC (S. aureus; [5]): 0.02 µg/mL (≈ 0.0496 µM); MIC [1]: 0.1 µg/mL (≈ 0.248 µM); MIC (STREPTOCOCCUS BOVIS): 0.39 µg/mL (≈ 0.967 µM); MIC (PROVIDENCIA STUARTII): 1.56 µg/mL (≈ 3.87 µM); MIC (PSEUDOMONAS CEPACIA): 6.2 µg/mL (≈ 15.4 µM); MIC (ACINETOBACTER SP): 0.05 µg/mL (≈ 0.124 µM); solubility ([2]; at pH 7.5 in Ringer's buffer): 8 µg/mL (≈ 19.8 µM); Blood Level of Compound ([3]; oral 100 mg/kg, t = 1.0 h): 0.5 µg/mL; Blood Level of Compound ([3]; oral 100 mg/kg, t = 2.0 h): 0.7 µg/mL; Blood Level of Compound ([3]; oral 100 mg/kg, t = 3.0 h): 0.9 µg/mL; Blood Level of Compound ([3]; oral 100 mg/kg, t = 6.0 h): 0.7 µg/mL; Blood Level of Compound ([3]; oral 100 mg/kg, t = 24.0 h): 0.0 µg/mL
